Read-outs that look alike come from different tables or passages of the source.
Tests used:
[1] = biological target: T1, proteasome Chymotrypsin-like (CT-L) activity (Mus musculus, UniProt O09061+O55234); experiment: Pharmacodynamic proteasome activity in murine red blood cells, CT-L; format: in vivo, NOD/SCID mice; conditions: iv, mice, 2 mg/kg i.v.
T1 construct: RBCs were lysed with assay lysis buffer and incubated on ice for 30 minutes; from tissue; host or cells: red blood cells of NOD/SCID mice
Protocol: Cells were harvested by centrifugation at 1,200 rpm at room temperature. Cell pellets were washed with PBS (phosphate buffered saline) and lysed with assay lysis buffer (50 mM HEPES (N-2-hydroxyethylpiperazine-N′-2-ethanesulfonic acid), pH 7.5; 150 mM NaCl; 1% Triton X-100; 2 mM ATP). Cell lysates were incubated on ice for 30 minutes, mixed by vortex every 5 minutes, and then centrifuged at 12,000 g for 10 minutes. The supernatant was transferred to a 96-well plate. For each assay, 10 μg of total protein were incubated for 1 hour at 37° C. with increasing concentrations (1 nM to 10 μM) of test compound diluted in assay buffer (50 mM tris-HCl (tris(hydroxymethyl)aminomethane-HCl), pH 7.5; 150 mM NaCl). DMSO alone was used as a control in every assay plate. After incubation, a specific fluorogenic proteasome substrate was added to each assay reaction at a final concentration of 40 μM in a total volume of 100 μL. N-Succinyl-Leu-Leu-Val-Tyr-7-amino-4-methylcoumarin (Suc-Leu-Leu-Val-Tyr-AMC) was used for measuring chymotrypsin-like (CT-L) activity, t-butoxycarbonyl-Leu-Arg-Arg-7-amino-4-methylcoumarin (Boc-Leu-Arg-Arg-AMC) for trypsin-like (T-L) activity, and benzyloxycarbonyl-L-leucyl-L-leucyl-L-glutamyl-7-amino-4-methylcoumarin (Z-Leu-Leu-Glu-AMC) for caspase-like (C-L) activity. The excitation wavelength was set at 360 nm and the fluorescence emission wavelength of AMC was detected at 460 nm. The fluorescence of free AMC released during the enzymatic reaction was measured with a SpectraMax M5 fluorescent spectrophotometric plate reader (Molecular Devices, Sunnyvale, Calif.). AMC release rate was measured at 37° C. in a kinetic mode, recording every 5 minutes for 30 minutes. Experiments were performed in triplicate and repeated at least twice.
All mouse experiments were performed in accordance with approval from the Ontario Cancer Institute institutional animal review board. Five- to six-week-old male non-obese diabetic/severe combined immunodeficient (NOD/SCID) mice were grouped randomly (n=3 mice per group). Mice were administered vehicle (5% DMSO, 20% Cremophor) or compounds of Formula I at different doses either intravenously or by oral gavage, and venous blood samples (20-50 μL) were collected from each mouse over 24 hours. Blood samples were mixed with heparin (APP Pharmaceuticals; Schaumburg, Ill.) in 0.5 mL tubes in accordance with the manufacturer's instructions. After centrifugal separation at 3,000 g for 10 minutes, red blood cells (RBCs) in the bottom layer were transferred into a new tube and stored at −70° C. until use. RBCs were lysed with assay lysis buffer and incubated on ice for 30 minutes, mixing by vortex every 5 minutes, and then centrifuged at 12,000 g for 10 minutes. The supernatant was transferred to a 96-well plate and proteasome activity was measured as described above for tumor cell lysates.
Proteasome subunit activity (Chymotrypsin-like, Trypsin-like, Caspase-like, CT-L, T-L, C-L, respectively) were monitored over the course of 24 hrs following […] administration of representative compounds of Formula I. NOD/SCID mice were treated with compounds of Formula I (2 mg/kg by iv administration) or vehicle control and carfilzomib for up to 24 hours, as described above. Table 9 summarizes the data on pharmacodynamic activity of representative compounds of Formula I following a dose of 2 mg/kg intravenous (i.v) administration to mice. Data are presented as mean residual activity (SEM) relative to vehicle treated controls.

[2] = system: A498; experiment: NCI screening panel, A498 (Renal Cancer); format: cell-based, human
Protocol: Representative compounds of Formula I were screened using the National Cancer Institute (NCI) screening panel, which consists of a panel of human tumor cell lines, representing leukemia, melanoma, and cancers of the lung, colon, ovary, breast, prostate and renal system.
After 24 h, two plates of each cell line are fixed in situ with TCA, to represent a measurement of the cell population for each cell line at the time of drug addition (Tz). Experimental drugs are solubilised in dimethyl sulfoxide at 400-fold the desired final maximum test concentration and stored frozen prior to use. At the time of drug addition, an aliquot of frozen concentrate is thawed and diluted to twice the desired final maximum test concentration with complete medium containing 50 μg/mL gentamicin. Additional four, 10-fold or ½ log serial dilutions are made to provide a total of five drug concentrations plus control. Aliquots of 100 μl of these different drug dilutions are added to the appropriate microtiter wells already containing 100 μl of medium, resulting in the required final drug concentrations.
Following drug addition, the plates are incubated for an additional 48 h at 37° C., 5% CO2, 95% air, and 100% relative humidity. For adherent cells, the assay is terminated by the addition of cold TCA (trichloroacetic acid). Cells are fixed in situ by the gentle addition of 50 μl of cold 50% (w/v) TCA (final concentration, 10% TCA) and incubated for 60 minutes at 4° C. The supernatant is discarded, and the plates are washed five times with tap water and air dried. Sulforhodamine B (SRB) solution (100 μl) at 0.4% (w/v) in 1% acetic acid is added to each well, and plates are incubated for 10 minutes at room temperature. After staining, unbound dye is removed by washing five times with 1% acetic acid and the plates are air dried. Bound stain is subsequently solubilised with 10 mM trizma base, and the absorbance is read on an automated plate reader at a wavelength of 515 nm. For suspension cells, the methodology is the same except that the assay is terminated by fixing settled cells at the bottom of the wells by gently adding 50 μl of 80% TCA (final concentration, 16% TCA). Using the seven absorbance measurements [time zero, (Tz), control growth, (C), and test growth in the presence of drug at the five concentration levels (Ti)], the percentage growth is calculated at each of the drug concentrations levels. Percentage growth inhibition is calculated as: [(Ti−Tz)/(C−Tz)]×100 for concentrations for which Ti>/=Tz and [(Ti−Tz)/Tz]×100 for concentrations for which Ti<Tz.
Three dose response parameters are calculated for each experimental agent. Growth inhibition of 50% (GI50) is calculated from [(Ti−Tz)/(C−Tz)]×100=50, which is the drug concentration resulting in a 50% reduction in the net protein increase (as measured by SRB staining) in control cells during the drug incubation. The drug concentration resulting in total growth inhibition (TGI) is calculated from Ti=Tz. The LC50 (concentration of drug resulting in a 50% reduction in the measured protein at the end of the drug treatment as compared to that at the beginning) indicating a net loss of cells following treatment is calculated from [(Ti−Tz)/Tz]×100=−50. Values are calculated for each of these three parameters if the level of activity is reached. However, if the effect is not reached or is exceeded, the value for that parameter is expressed as greater or less than the maximum or minimum concentration tested.

[3] = 30 min, read-out: Chymotrypsin-like (CT-L) mean residual activity relative to vehicle treated controls
[4] = 24 hrs, read-out: Chymotrypsin-like (CT-L) mean residual activity relative to vehicle treated controls
[5] = time 0, read-out: Chymotrypsin-like (CT-L) mean residual activity relative to vehicle treated controls

Row | SMILES | remaining activity at 2 mg/kg [1, 3] [%] | remaining activity at 2 mg/kg [1, 4] [%] | remaining activity at 2 mg/kg [1, 5] [%] | Log10GI50 [2] | Log10LC50 [2] | Log10TGI50 [2]
1 | CC(C)C[C@H](NC(=O)[C@H](COC(F)F)NC(=O)CN1CCOCC1)C(=O)N[C@@H](COC(F)F)C(=O)N[C@@H](CC(C)C)C(=O)[C@@]1(C)CO1 [Example 1, (2S)—N-[(1S)-1-(difluoromethoxymethyl)-2-[[(1S)-3-methyl-1-[(2R)-2-methyloxirane-2-carbonyl]butyl]amino]-2-oxo-ethyl]-2-[[(2S)-3-(difluoromethoxy)-2-[(2-morpholinoacetyl)amino]propanoyl]amino]-4-methyl-pentanamide] | 20 | 21 | 100 | −7.59 | −6.06 | −6.93
2 | CC(C)C[C@H](NC(=O)[C@H](COC(F)F)NC(=O)CN1CCOCC1)C(=O)N[C@@H](Cc1ccccc1)C(=O)N[C@@H](CC(C)C)C(=O)[C@@]1(C)CO1 [Example 2, (2S)-N-[(1S)-1-benzyl-2-[[(1S)-3-methyl-1-[(2R)-2-methyloxirane-2-carbonyl]butyl]-amino]-2-oxo-ethyl]-2-[[(2S)-3-(difluoromethoxy)-2-[(2-morpholinoacetyl)amino]propanoyl]amino]-4-methyl-pentanamide] | 29 | 24 | 100 | −7.67 | −6.23 | −7.12
3 | CC(C)C[C@H](NC(=O)[C@H](COC(F)F)NC(=O)CN1CCOCC1)C(=O)N[C@@H](Cc1ccccc1)C(=O)N[C@@H](Cc1ccccc1)C(=O)[C@@]1(C)CO1 [Example 3, (2S)-N-[(1S)-1-benzyl-2-[[(1S)-1-benzyl-2-[(2R)-2-methyloxiran-2-yl]-2-oxo-ethyl]amino]-2-oxo-ethyl]-2-[[(2S)-3-(difluoromethoxy)-2-[(2-morpholinoacetyl)-amino]propanoyl]amino]-4-methyl-pentan-amide] | 29 | 31 | 100 | −7.97 | −6.34 | −7.26
4 | CC(C)C[C@H](NC(=O)[C@H](COC(F)F)NC(=O)CN1CCOCC1)C(=O)N[C@@H](COC(F)F)C(=O)N[C@@H](Cc1ccccc1)C(=O)[C@@]1(C)CO1 [Example 4, (2S)-N-[(1S)-2-[[(1S)-1-benzyl-2-[(2R)-2-methyloxiran-2-yl]-2-oxo-ethyl]amino]-1-(difluoromethoxymethyl)-2-oxo-ethyl]-2-[[(2S)-3-(difluoromethoxy)-2-[(2-mor-pholinoacetyl)amino]propanoyl]amino]-4 methyl-pentanamide] | 34 | 37 | 100 | −7.42 | −5.65 | −6.61
5 | CC(C)C[C@H](NC(=O)[C@H](COC(F)F)NC(=O)[C@H](COC(F)F)NC(=O)[C@H](CCc1ccccc1)NC(=O)CN1CCOCC1)C(=O)[C@@]1(C)CO1 [Example 7, (2S)-N-[(1S)-1-(difluoromethoxymethyl)-2-[[(1S)-1-(difluoromethoxymethyl)-2-[[(1S)-3-methyl-1-[(2R)-2-methyloxirane-2-carbo-nyl]butyl]amino]-2-oxo-ethyl]amino]-2-oxo-ethyl]-2-[(2-morpholinoacetyl)amino]-4-phenyl-butanamide] | 35 | 30 | 100 | −7.40 | −6.06 | −6.75
6 | CC(C)C[C@H](NC(=O)[C@H](Cc1ccccc1)NC(=O)[C@H](COC(F)F)NC(=O)[C@H](COC(F)F)NC(=O)CN1CCOCC1)C(=O)[C@@]1(C)CO1 [Example 11, (2S)-2-[[(2S)-3-(difluoromethoxy)-2-[[(2S)-3-(difluoromethoxy)-2-[(2-morpholinoacetyl)-amino]propanoyl]amino]propanoyl]amino]-N-[(1S)-3-methyl-1-[(2R)-2-methyloxirane-2-carbonyl]butyl]-3-phenyl-propanamide] | 30 | 28 | 100 | −7.64 | −6.08 | −7.00
7 | CC(C)C[C@H](NC(=O)[C@H](COC(F)F)NC(=O)[C@H](COC(F)F)NC(=O)[C@H](COC(F)F)NC(=O)CN1CCOCC1)C(=O)[C@@]1(C)CO1 [Example 17, (2S)-3-(difluoromethoxy)-N-[(1S)-1-(difluoromethoxymethyl)-2-[[(1S)-1-(difluoro-methoxymethyl)-2-[[(1S)-3-methyl-1-[(2R)-2-methyloxirane-2-carbonyl]butyl]amino]-2-oxo-ethyl]amino]-2-oxo-ethyl]-2-[(2-mor-pholinoacetyl)amino]-propanamide] | 25 | 23 | 100 | −6.87 | −5.44 | −6.22

From patent US20150218212A1, “FLUORINATED EPOXYKETONE-BASED TETRAPEPTIDE COMPOUNDS AND USES THEREOF AS PROTEASOME INHIBITORS” (FLUORINOV PHARMA INC., priority 2012, published 2015)
